One data set concerns the target AmpC (PDC-5) (Pseudomonas aeruginosa, UniProt P24735, R79Q/T105A). The data set is described as follows: biochemical. In kind it is biochemical, P. aeruginosa ATCC 27853. Here is the method:
The purification of AmpC from the culture supernatant obtained above was conducted as described in the Catwright and Waley protocol[52] using an Affi-gel 10 matrix (Bio-Rad, Hercules, CA, USA) loaded in a column (G-Bioscience, St-Louis, MO, USA). First, the resin was washed with cold deionized water. The resin was then collected and mixed with 20 mL of the 3-aminophenylboronic acid solution (1 M KHCO3 containing 2 g of 3-aminophenyl boronic acid and 2 g of sorbitol) at 4 °C for 1 h, and the pH was maintained at 8 with solid KHCO3. The mixture was loaded onto the column and washed with 10 column volumes of 1 M NaCl/0.5 M sorbitol (pH 7), followed by 10 column volumes of 0.5 M borate (pH 7), and then 10 column volumes of the loading buffer (20 mM triethanolamine HCl/0.5 M NaCl, pH 7). The sample was dialyzed in the loading buffer before being loaded onto the column. The column was washed with the loading buffer until no absorbance was measured at OD280. AmpC was eluted in fractions of 1 mL with 0.5 M borate/0.5 M NaCl pH 7. […] The purity was visualized on a 10% bis-acrylamide gel. Only pure fractions showing a single band at 40 kDa were pooled together and then dialyzed at 4 °C in a KP buffer 0.05 M pH 7 (see Fig. S2). The protein concentration was determined with a Bradford protein reagent (Bio-Rad).
(§1) Enzyme concentrations were 20 nM for AmpC and SHV-1, and 50 nM for OXA-98. Quartz cuvette (FireflySci Inc., Northport, NY) with 1 cm length path and 2 mm inside width was used with an Ultrospec 2100 Pro (Biochrom, Harvard Bioscience Inc., USA) to acquire the kinetic measures. […] The following extinction coefficients (Δε) and wavelengths (λ) were used:
(§2) The steady-state parameters (Km and Kcat) were determined by plotting the initial velocity against substrate concentrations (Michaelis–Menten curve). The Kcat was measured using the Vmax (μM/sec) divided by the total enzyme concentration and the catalytic efficiency was further calculated (Kcat/Km). SHV-1 parameters were determined with three Michaelis–Menten curves of at least seven substrate concentrations, while OXA-98 and AmpC were duplicates of curves of at least seven substrate concentrations. […] Initial velocities were measured at room temperature (25 °C). The Vmax and Km were calculated using least squares fit regression in GraphPad version 10.2.2. Ki was measured using a derivative of IC50 with an adaptation of the Cheng–Prusoff equation[55]. […] The corrected Ki was calculated using this formula: Kicorrected=Ki(observed)/1+S/KmNCF

For data set [1], the target named is T1, purified PBP3 of P. aeruginosa (PaPBP3) (Pseudomonas aeruginosa, UniProt G3XD46).
T1 construct: (residues 53 to 579) from P. aeruginosa ATCC 27853 (PaPBP3); His6 (C); made in house; host or cells: E. coli BL21 DE3
T1 sequence (G3XD46 53-579): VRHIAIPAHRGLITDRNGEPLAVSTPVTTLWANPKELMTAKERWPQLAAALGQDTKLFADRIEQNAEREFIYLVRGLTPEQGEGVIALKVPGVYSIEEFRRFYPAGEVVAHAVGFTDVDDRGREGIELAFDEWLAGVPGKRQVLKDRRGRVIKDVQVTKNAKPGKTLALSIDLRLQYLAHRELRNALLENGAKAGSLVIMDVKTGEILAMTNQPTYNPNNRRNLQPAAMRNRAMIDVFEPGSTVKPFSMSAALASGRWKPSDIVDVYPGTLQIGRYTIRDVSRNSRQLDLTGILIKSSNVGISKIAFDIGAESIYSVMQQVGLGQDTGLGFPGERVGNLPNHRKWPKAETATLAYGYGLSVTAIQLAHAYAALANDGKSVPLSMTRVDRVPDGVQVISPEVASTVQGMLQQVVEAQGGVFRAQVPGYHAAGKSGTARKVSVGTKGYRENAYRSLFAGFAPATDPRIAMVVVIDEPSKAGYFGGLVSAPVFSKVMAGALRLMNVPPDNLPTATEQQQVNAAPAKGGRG
The data set is described as follows: biochemical. In kind it is binding. As for the experimental part:
The PBP binding assay was done as described previously[36],[56],[57]. For each antibiotic concentration tested, a quantity of 25 to 40 μg of membrane preparation was used as the source of PBPs, depending on the species. For the purified PaPBP3, 150 ng was used in the assay. First, increasing concentrations of the test antibiotic was added to the membrane or purified PaPBP3 preparations and incubated for 10 min at 30 °C. The reporter molecule Bocillin FL was then added at 12.5 μM for the membrane PBPs preparations and at 500 nM for the pure PaPBP3 samples for an additional 20 min at 30 °C. All reactions were stopped with the addition of the Laemmli-loading buffer (Bio-Rad) containing fresh β-mercaptoethanol (Sigma). All reactions were then heated at 100°C for 3 min before migration on SDS-polyacrylamide discontinuous gel system (7.5% stacking and 10% separating). Control samples without Bocillin FL were also included to highlight autofluorescent proteins that are not PBPs.
To be able to visualize labeled PBPs after electrophoresis, gels were rinsed in water and fixed in a solution of 50% methanol and 7% acetic acid for 30 min. The fluorescent images of gels were obtained with the Typhoon FLA 9500 instrument (GE-Healthcare Bio-Sciences Inc., Baie-d’Urfé, QC, CA) using a 473 nm excitation wavelength. To obtain quantifiable data, the software Quantity One 1D analysis was used (version 4.6.6; Bio-Rad Laboratories, Richmond, CA). The volume (intensity × constant area) of each PBP was measured. […] All IC50 data were obtained from at least two independent PBP binding assays using two different sets of compound concentrations using a linear regression.

A further data set deals with E. coli MC4100. The data set is described as follows: MIC. In kind it is cell-based, Escherichia coli. Particulars: for MIC in combination with PAβN: + 25 µg/mL PAβN. As for the experimental part: All bacterial strains (see description and sources Table S1) were stored at −80 °C, and grown on tryptone soya agar (TSA) at 35 °C. The iron-deprived (ID)-MHBCA (cation-adjusted Muller-Hinton Broth, Becton Dickinson, Mississauga, ON, Canada) medium was prepared as reported by refs. [21],[50]. Briefly, MHBCA was treated with 10% Chelex® 50-100 mesh (Sigma) and stirred for 6 h at room temperature. The resin was removed by filtration. Divalent Ca^2+ (CaCl2), Mg^2+ (MgCl2), and Zn^2+(ZnSO4), were then added in the iron-depleted medium at 22, 12, and 1 μg/ml respectively. Finally, the pH was adjusted to 7.3, and the medium was sterilized with a 0.2-μm filter. Regular MHBCA (i.e., not treated with Chelex®) was used to compare the inhibitory activity of conjugates in iron-sufficient conditions.
Minimal inhibitory concentrations (MICs) were performed using a broth microdilution technique according to the Clinical and Laboratory Standards Institute (CLSI) guidelines. MICs were determined in MHBCA and in ID-MHBCA. To check the impact of β-lactamases, MICs in the presence of a β-lactamase inhibitor were also determined. The inhibitor was homogenized at 2X the final concentration and added to the bacterial inoculum just before distributing cells into the wells containing the drug dilutions. The final concentration of each inhibitor was 4 μg/mL for clavulanic acid (tested against K. pneumoniae) and 200 μg/mL for 3-aminophenylboronic acid (tested against P. aeruginosa and A. baumannii).

A further data set has as its target SHV-1 (Klebsiella pneumoniae, UniProt P0AD64). As to the kind of experiment: biochemical. As for the experimental part:
as §1, §2

Data set [2] in a line: Antibiotic stability in 4-h bacterial culture supernatant. The data set is classed as physicochemical. Particulars: for additional decrease of residual concentration in used supernatants versus medium: 4-h supernatants with and without iron, after 3 h; for percentage of antibiotic degradation in [bacterial supernatant]: 3 h.
Procedure: For analysis, the determined concentration in the supernatant was adjusted for the degradation of the molecules measured in the stability control tests for each time point. The final net antibiotic concentration in the medium was calculated at each time point by adding the concentration caused by degradation to the concentration of the test antibiotic measured in the assay tubes containing bacteria. […] A second control was added for the β-lactam LOR and CEF to verify the impact of metabolic waste on the stability of the molecules. The supernatant from the 4-h growth control without antibiotic was collected by filtration 0.2 µm. LOR and CEF were then added to the filtrated supernatant at 200 µM, and degradation was measured after 3 h.
Where [3] appears, read: Escherichia coli, MC4100, MC4100, ID-MHBCA (−), read-out: MIC.
Where [4] appears, read: 150 ng PaPBP3, 500 nM Bocillin FL, n = 3, read-out: IC50 PaPBP3 purified.
[5] abbreviates: Escherichia coli, MC4100, MC4100, MHBCA (+), without PAβN, read-out: MIC.
Setting [6] is: Escherichia coli, MC4100, MHBCA (+), without PAβN, read-out: MIC.
[7] abbreviates: MC4100, efflux pump mutant table S5, read-out: MIC.
Where [8] appears, read: supernatant of 4-hour culture in ID-MHBCA.

Molecules are shown by their SMILES. Values after ≈ are worked out from the molar mass of the structure shown. Where two headings read alike, the source gives them in different places.

Chain of SHV-1 (P0AD64 23-286): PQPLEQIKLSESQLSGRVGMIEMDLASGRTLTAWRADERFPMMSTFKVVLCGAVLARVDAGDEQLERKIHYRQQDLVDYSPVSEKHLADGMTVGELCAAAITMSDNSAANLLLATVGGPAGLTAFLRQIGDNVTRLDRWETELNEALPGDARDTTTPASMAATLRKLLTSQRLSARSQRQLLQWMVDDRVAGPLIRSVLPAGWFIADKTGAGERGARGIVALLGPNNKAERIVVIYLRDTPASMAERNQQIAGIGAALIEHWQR
Chain of AmpC (PDC-5) (P24735 27-397 R79Q/T105A): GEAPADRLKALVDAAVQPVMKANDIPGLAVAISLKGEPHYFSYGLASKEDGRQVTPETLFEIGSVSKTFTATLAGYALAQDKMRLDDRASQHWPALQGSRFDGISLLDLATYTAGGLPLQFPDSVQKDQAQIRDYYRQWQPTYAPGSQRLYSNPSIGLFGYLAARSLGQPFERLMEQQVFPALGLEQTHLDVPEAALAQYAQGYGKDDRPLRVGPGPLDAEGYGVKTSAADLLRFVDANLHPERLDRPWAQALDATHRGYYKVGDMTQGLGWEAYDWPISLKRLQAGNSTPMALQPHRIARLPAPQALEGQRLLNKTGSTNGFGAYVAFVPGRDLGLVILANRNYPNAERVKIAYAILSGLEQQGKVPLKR

Regarding `CC1(C)S[C@@H]2[C@H](NC(=O)[C@H](N)c3ccccc3)C(=O)N2[C@H]1C(=O)O` [AMP, ampicillin, reference compound], affinity at AmpC (PDC-5) was put at a Ki of 15 ± 1 µM. Further, the IC50 – broadly, the concentration that inhibits the measured activity by half – in data set [1] came to 0.074 ± 0.029 µM.
As for `CC1(C)SC2C(NC(=O)C(NC(=O)CN(CCCCNC(=O)c3cccc(O)c3O)C(=O)c3cccc(O)c3O)c3ccccc3)C(=O)N2C1C(=O)O` (centres unmarked) [BAMP, bis-catechol (azotochelin)-ampicillin], the MIC – broadly, the least concentration at which growth counts as inhibited – against E. coli MC4100 (Escherichia coli, MC4100) was determined as 0.05 µM (≈ 0.0375 µg/mL); in the data set with E. coli MC4100 (setting [3]) it was 0.024 µM (≈ 0.018 µg/mL). For the same compound, the “MIC ratio unconjugated β-lactam/conjugate” value is recorded as 512 in the data set with E. coli MC4100 (MC4100, ID-MHBCA) and 256 in the data set on E. coli MC4100 (MC4100, MHBCA). Further, the “MIC in combination with PAβN” value in the data set on E. coli MC4100 (MC4100, MHBCA) stood at 0.2 µM. Further, the Ki (in general, the equilibrium dissociation constant of an inhibitor or competing ligand from its target) on SHV-1 worked out at 184 ± 14 µM; at AmpC (PDC-5), 19 ± 1 µM. Further, the IC50 in data set [1] (setting [4]) came to 0.076 ± 0.031 µM. The “IC50 ratio βL/SID-βL, PaPBP3 purified” value in data set [1] was 0.97.
In the case of `O=C(CN(CCCCNC(=O)c1cccc(O)c1O)C(=O)c1cccc(O)c1O)NC(C(=O)NC1C(=O)N2C(C(=O)O)=C(Cl)CCC12)c1ccccc1` (centres unmarked) [BLOR, bis-catechol (azotochelin)-loracarbef], the MIC came to 0.006 µM (≈ 0.0045 µg/mL) with E. coli MC4100 (setting [3]), 0.012 µM (≈ 0.009 µg/mL) with E. coli MC4100 (setting [5]), 0.024 µM (≈ 0.018 µg/mL) in the data set with E. coli MC4100 (setting [6]) and 0.024 µM (≈ 0.018 µg/mL) in the data set on E. coli MC4100 (setting [7]). For the same compound, the “MIC ratio unconjugated β-lactam/conjugate” value came out at 512 with E. coli MC4100 (MC4100, ID-MHBCA) and 256 with E. coli MC4100 (MC4100, MHBCA). Besides, the “MIC in combination with PAβN” value in the data set on E. coli MC4100 (MC4100, MHBCA) is recorded as 0.2 µM. Moreover, on AmpC (PDC-5) (n = 2), the “AmpC (PDC-5) Vmax” value amounted to 11 ± 1 µmol·mg/min. In addition, the IC50 in data set [1] (setting [4]) amounted to 0.38 ± 0.07 µM. Moreover, the “IC50 ratio βL/SID-βL, PaPBP3 purified” value in data set [1] was found to be 23.
In the case of `N[C@@H](C(=O)N[C@@H]1C(=O)N2C(C(=O)O)=C(Cl)CS[C@H]12)c1ccccc1` [CEF, cefaclor, reference compound], the results for the minimal inhibitory concentration (MIC) in the data set with E. coli MC4100 (setting [3]) and in the data set on E. coli MC4100 (setting [5]) were 3.1 µM (≈ 1.14 µg/mL) and 6.3 µM (≈ 2.32 µg/mL), respectively. The “MIC in combination with PAβN” value in the data set with E. coli MC4100 (MC4100, MHBCA) stood at 13 µM. Also, in data set [2], the “additional decrease of residual concentration in used supernatants versus medium” value is reported as ≤ 12%. The “percentage of antibiotic degradation in [bacterial supernatant]” value in data set [2] (setting [8]) worked out at 32%; in data set [2] (supernatant of 4-hour culture in MHBCA) it was 36%.
On to `N[C@@H](C(=O)N[C@@H]1C(=O)N2C(C(=O)O)=C(Cl)CC[C@H]12)c1ccccc1` [LOR, loracarbef, reference compound], for which the MIC was determined as 3.1 µM (≈ 1.08 µg/mL) in the data set with E. coli MC4100 (MC4100, ID-MHBCA (−), read-out: MIC); 3.1 µM (≈ 1.08 µg/mL) in the data set with E. coli MC4100 (MC4100, MHBCA (+), without PAβN, read-out: MIC); 3.1 µM (≈ 1.08 µg/mL) with E. coli MC4100 (setting [7]). Also, the “MIC in combination with PAβN” value with E. coli MC4100 (MC4100, MHBCA) is recorded as 6.3 µM. Also, the “SHV-1 Kcat” value at SHV-1 (n = 3) is 7.4 ± 0.5 s⁻¹. The Km (as a rule, the substrate concentration at which the rate is half of its maximum) amounted to 29 ± 9 µM at SHV-1 (read-out: SHV-1 Km, Michaelis–Menten curves, n = 3, 25 °C) and 22 ± 0.5 µM on AmpC (PDC-5) (Michaelis–Menten curves, n = 2, read-out: AmpC (PDC-5) Km). At AmpC (PDC-5) (n = 2), the “AmpC (PDC-5) Vmax” value worked out at 15 ± 0.3 µmol·mg/min. For the same compound, in data set [2], the “additional decrease of residual concentration in used supernatants versus medium” value is recorded as ≤ 12%. Further, in data set [2] (setting [8]), the “percentage of antibiotic degradation in [bacterial supernatant]” value is 11%. Besides, in data set [1] (setting [4]), the IC50 came out at 8.6 ± 3.6 µM.
With `O=C(CCC(=O)N(CCCCNC(=O)c1cccc(O)c1O)CCCNC(=O)c1cccc(O)c1O)NCCCCCN(O)C(=O)CCCC(=O)NC(C(=O)NC1C(=O)N2C(C(=O)O)=C(Cl)CSC12)c1ccccc1` (centres unmarked) [MCEF, mixed ligand bis-catechol-mono-hydroxamate-cefaclor], the MIC with E. coli MC4100 (setting [3]) is > 200 µM; in the data set on E. coli MC4100 (setting [5]), 6.3 to 25 µM (≈ 6.81 to 27 µg/mL); in the data set with E. coli MC4100 (setting [6]), 6.3 µM (≈ 6.81 µg/mL); in the data set with E. coli MC4100 (setting [7]), 6.3 µM (≈ 6.81 µg/mL). In addition, in the data set on E. coli MC4100 (MC4100, ID-MHBCA), the “MIC ratio unconjugated β-lactam/conjugate” value is given as < 0.016. For the same compound, the “MIC in combination with PAβN” value in the data set with E. coli MC4100 (MC4100, MHBCA) is > 200 µM.

The record behind these values is article PMC12592502, “Unraveling the mechanisms behind the enhanced efficacy of β-lactam-based sideromycins” (Communications Biology, 2025).
